Source: patent US12728111B2, “Electrophilic compounds and electrophilic prodrugs for treating aneurysm” (University of Pittsburgh—Of the Commonwealth System of …, priority 2020, dated 2026)

Tests used:
[1] = system: LPS-induced macrophage activation; assay: PGE2-mediated protection against LPS-induced macrophage activation; type: cell-based
[2] = system: leukocyte/macrophage infiltration in the vasculature; assay: FACS of single cells from mouse suprarenal aorta; type: in vivo; details: mean±SEM
Description: FIG. 2. […] (A) Quantification of gene expression levels in the mice suprarenal aorta region by real-time PCR (n=3 to 4). (B, C) Serum cytokines levels measured by ELISA (n=8 to 11). (D) FACS of single cells isolated from the mice suprarenal aorta region. Each sample is the pool of cells from three mice (n=3). (E, F) Quantification of the percentage of CD45+ leukocytes and CD64+, CD11c+M1-like macrophages in total cells from the FACS analysis. Ordinary one-way ANOVA followed by Tukey's test was performed for (A), (E) and (F). For ELISA in (B) and (C), to avoid the effect of the non-detected data point, a non-parametric Kruskal-Wallis test followed by Dunn's multiple comparisons was performed by adding zero to the missing data point. Data presented as mean±SEM. A p<0.05 for both the main test and post hoc test was considered statistically significant.
The suprarenal aorta region from euthanized mice were completely perfused with PBS containing 2% of heparin. Tissues were digested using a cocktail of 450 U/mL collagenase type I (#17100-017, Gibco), 125 U/mL collagenase type XI (#C7657, Sigma-Aldrich), 60 U/mL hyaluronidase type I-s (#H3606, Sigma-Aldrich) and 60 U/mL DNase-I (#10104159001, Roche) at 37° C. for 90 minutes. Single cells filtered through a 70 μm cell strainer were blocked by Fc block (#14-0161-85, eBioscience) for 5 minutes on ice. […] Data were analyzed using FlowJo v10.6.1.

p65 (NFκB) = assay: oxLDL-induced p65 nuclear translocation in BMDMs (western blot); type: cell-based, mouse; details: 2.5 μM pretreatment 1 h, oxLDL 50 μg/ml 1 h
Method: FIG. 3. NO2—OA prevents oxLDL-induced NFκB activation and pro-inflammatory cytokine production. Primary BMDMs were pretreated with vehicle, OA (2.5 μM) or NO2—OA (2.5 μM) for 1 h, followed by treatment of oxLDL (50 to 100 μg/ml) for the indicated times. (A, B) Nuclear (A) and cytoplasmic protein (B) fractions were isolated 1 h after oxLDL treatment and subjected to western blot with antibodies against p65, lamin a/c (nuclear marker) and GAPDH (cytosolic marker). Representative western blot images of three independent experiments are shown. (C) Quantification of the p65 nuclear to cytoplasmic ratio by image studio (normalized by the internal control, n=3). (D-F) Following 8 h of oxLDL treatment, levels of IL6, MCP1 and TNFα in the cell medium were measured by ELISA (n=4). (G) Real-time PCR quantification of gene expression levels of IL1b and Mmp9 in total mRNA extracted from the BMDMs. […]
Nuclear/cytoplasm protein extraction, co-Immunoprecipitation and immunoblotting NE-PER™ Nuclear and Cytoplasmic Extraction Reagents (#78835, ThermoFisher) were used for nuclear and cytoplasmic protein extraction. […] Membranes were blocked by 5% BSA and incubated with the primary antibody at 4° C. overnight followed by incubation with fluorescence conjugated secondary antibody for 1 h at room temperature. Band intensity was collected with the Odyssey® CLx Imaging System and quantified using Image Studio™ Lite.

CCCCCCCCC(=CCCCCCCCC(=O)O)[N+](=O)[O-] [NO2—OA, 10-nitro-octadec-9-enoic acid]
PGE2-mediated protective effect against LPS-induced macrophage activation (expression of Tnf, Il6, Ccl4) [1]: does not suppress | leucocytes (CD45+) in the vasculature, percentage of total cells [2]: 14.87±3.28% | pro-inflammatory M1 like macrophages (CD64+, CD11c+), percentage of total cells [2]: 3.27±0.42% | p65 nuclear to cytoplasmic ratio (p65 (NFκB)): 14.10±1.92
